Consider 2 molecules from patent US20240041796A1, “ANTI-INFLAMMATORY COMPOSITION COMPRISING N-BENZYL-N-METHYLDECAN-1-AMINE OR A DERIVATIVE THEREOF AS AN ACTIVE INGREDIENT” (PUSAN NATIONAL UNIVERSITY INDUSTRY-UNIVERSITY COOPERATION …, priority 2022, published 2024).

Series [1] has as its system human THP-1 monocytic cell line. The series can be described thus: ELISA of inflammatory cytokines in supernatant of LPS-treated THP-1 cells. The series is classed as cell-based. As to conditions: LPS 1 μg/ml, FIG. 2C. How it is done:
Each of BMDA (FMJ-G0) or DMMA (FMJ-G4) was added to a culture medium at concentrations of […], and 1 μM in a 6-well plate. The human THP-1 monocytic cell line (5×10^5 cells/well) was cultured therein for 3 hours. Each well was treated with lipopolysaccharide at a concentration of 1 μg/ml. After 1 hour, centrifugation was performed to obtain a supernatant which was used in an ELISA for inflammatory cytokine evaluation. Cell lysate was added to the collected THP-1 cells for immunoblotting.

The subject of a further series is NF-KB P65 protein. Put plainly: NF-KB P65 distribution in cytoplasm and nucleus of LPS-treated THP-1 cells, immunoblotting. Conditions: FIG. 2D. It is filed as cell-based, human. The source says:
Moreover, the mononuclear THP-1 cell line treated with lipopolysaccharide (LPS) and BMDA/DMMA under the same conditions was partitioned into cytoplasmic and nuclear portions. Distribution of NF-KB P65 protein in the cytoplasm and nucleus was examined based on immunoblotting.

In series [2] the test system is DBA/J1 male mice. Put plainly: Rheumatoid arthritis model induced by type 2 bovine collagen, oral administration. The series is classed as in vivo, mouse. Conditions: for inflammation and synovitis of joint tissues: H&E stained joint sections, FIG. 5A-B; for expression of HO-1 in the joints / expression of Nrf2 in the joints: immunoblotting, FIG. 6B; for length of the spleen / weight of the spleen / swelling of the feet / weight loss caused by rheumatism induced by collagen: oral 20 mg/body weight Kg for 21 days; for length of the spleen / weight of the spleen: vs control, FIG. 4C-D; for swelling of the feet: vs soybean oil control, FIG. 4A-B; for weight loss caused by rheumatism induced by collagen: FIG. 4B. How it is done: Rheumatoid arthritis was induced in 7-week-old DBA/J1 male mice. We thoroughly mixed the type 2 collagen at a concentration of 2 mg/mL with CFA (Complete Freund's Adjuvant) in the mixing ratio 1:1. We injected 0.1 mL (100 μg) of the mixture intradermally to a position away 2 cm from a base of the tail. After 2 weeks, we mixed the type 2 collagen with IFA instead of CFA in the mixing ratio 1:1. We administered the mixture subcutaneously to the base of the tail in the same amount and volume as those in the first injection. After 3 days, we grouped the mice into 4 groups and performed second administration thereto.
(§1) In one example, BMDA (FMJ-G0) and a derivative thereof (DMMA, FMJ-G4) at a concentration of 2.5 mg/mL were orally administered to male mice in a volume of 200 μL (20 mg/body weight Kg) for 21 days. In a control group, soybean oil was orally administered thereto.
(§2) During the experiment, the insteps of the forelimbs and hindlimbs were measured with a caliper three times a week, and the mice were suffocated, and joint areas were prepared for immunohistochemical staining and immunoblotting. Moreover, the spleen was removed therefrom and a size thereof was measured. Further, blood was drawn through the hepatic portal vein to prepare serum. A specific method was as follows. • 1) Paraffin sections were prepared as the joints including the ankles of the forelimbs. At this time, decalcification is performed first, followed by sectioning the same at a thickness of 4 μm, and H&E staining. • 2) The cell lysis solution was added thereto, and then we crushed the tissue with a sonicator, which was prepared for immunoblotting. • 3) Trisol solution was added to the joint tissue, the tissue was pulverized in a sonicator, and centrifuged, and the Trisol solution was used to precipitate proteins and DNA for entire RNA separation, and the entire RNA was collected from the supernatant obtained via the centrifugation. c-DNA was synthesized using oligo-dT primer and reverse transcriptase, and then, quantitative qRT-PCR and immunoblotting were performed thereon.
For orientation: Immunoblotting shows a protein as a band on a membrane.

The subject of series [3] is DBA/J1 male mice. Put plainly: Serum AST and ALT activity (hepatotoxicity indicators) in the collagen-induced rheumatoid arthritis model. The series is classed as in vivo, mouse. As to conditions: oral administration for 3 weeks; FIG. 7. The protocol:
as §1, §2

On to `CCCCCCCCCCN(C)Cc1ccccc1` [BMDA, N-benzyl-N-methyldecan-1-amine], for which, in series [1], the “production of IL-1β” value is “inhibited” and the “production of TNF-α” value is listed as “inhibited”. Also, in the series with NF-KB P65 protein, the “NF-KB expression and migration in the nucleus” value is “inhibited”; the “activity of the transcription factor NF-KB” value is on record as “inhibited”. Also, in the series on DBA/J1 male mice [2], the “inflammation and synovitis of joint tissues” value was “significantly reduced”; the “expression of HO-1 in the joints” value is reported as “increased”; the “expression of Nrf2 in the joints” value is on record as “increased”; the “length of the spleen” value is reported as “reduced”. For the same molecule, in the series on DBA/J1 male mice [2], the “weight of the spleen” value is “reduced”, the “swelling of the feet” value was “much smaller” and the “weight loss caused by rheumatism induced by collagen” value is “did not restore”. Also, in the series with DBA/J1 male mice [3], the “activity of ALT enzyme in serum” value was “did not increase” and the “activity of AST enzyme in serum” value is “did not increase”.
On to `CCCCCCCCCCN(C)Cc1ccc(OC)cc1` [DMMA, Decyl-(4-methoxy-benzyl)-methyl-amine], for which, in series [1], the “production of IL-1β” value is reported as “inhibited” and the “production of TNF-α” value is “inhibited”. In the series on NF-KB P65 protein, the “NF-KB expression and migration in the nucleus” value is recorded as “inhibited”; the “activity of the transcription factor NF-KB” value is listed as “inhibited”. For the same molecule, in the series on DBA/J1 male mice [2], the “inflammation and synovitis of joint tissues” value is given as “significantly reduced”; the “expression of HO-1 in the joints” value is “increased”; the “expression of Nrf2 in the joints” value is on record as “increased”; the “length of the spleen” value was “reduced”. Besides, in the series on DBA/J1 male mice [2], the “weight of the spleen” value is “reduced”, the “swelling of the feet” value is on record as “much smaller” and the “weight loss caused by rheumatism induced by collagen” value is listed as “did not restore”. For the same molecule, in the series with DBA/J1 male mice [3], the “activity of ALT enzyme in serum” value is on record as “did not increase” and the “activity of AST enzyme in serum” value is “did not increase”.
